Experimental findings from US20220087987A1, “A METHOD FOR TREATING SWI/SNF COMPLEX-DEFICIENT CANCERS COMPRISING GLUTATHIONE (GSH) METABOLIC PATHWAY INHIBITOR” (National Cancer Center, priority 2018, published 2022) are described below.

Holding throughout (type): cell-based, human
Assay [1] deals with ARID1A-KO cells and ARID1A-deficient cancer cells. Put plainly: Apoptosis detection (cleaved caspase-3/7, Annexin V). As to the method: The Annexin V-FITC/PI Apoptosis Detection Kit (Sigma-Aldrich) was used to detect apoptotic cells. Briefly, the cell pellet was suspended in 1× binding buffer and then incubated with Annexin V-FITC and PI in the dark for 10 min. Fluorescence was analyzed on a Guava flow cytometer (Millipore). Data were analyzed using GuavaSoft software (v. 2.7). Relative ratios of the Annexin V-positive fraction in treated samples were normalized against untreated samples.
GSH, ROS and apoptosis were detected using the GSH/GSSG-Glo Assay (Promega) and/or the GSH-Glo Assay (Promega), the ROS-Glo Assay (Promega), and the Caspase-Glo 3/7 Assay, respectively. To measure levels of GSH, ROS and apoptosis after drug treatment, cells were trypsinized, counted, reseeded at the specified density in 96-well plates and exposed to the indicated concentrations of drugs. After 16-48 hrs, luminescence was measured using an Envision Multi-label plate reader (PerkinElmer). […] Cells were trypsinized after a further 48 hrs, counted, and reseeded at the specified density in 96-well plates. After 72-120 hrs, luminescence was measured using an Envision Multi-label plate reader (PerkinElmer). Cell viability was also measured using the CellTiter-Glo Luminescent Cell Viability Assay (Promega). […] The GSH/GSSG ratio was calculated as the GSH-GSSG signal divided by the GSSG/2 signal. […]

In assay [2] the test system is bile duct cancer cell lines. Put plainly: Cell viability of bile duct cancer cell lines. The conditions noted are these: treatment for 6 days. As to the method:
(§1) Cell viability was examined by measuring the cellular ATP level using the CellTiter-Glo Luminescent Cell Viability Assay (Promega). To measure cell viability after siRNA-mediated knockdown, cell lines were transfected with siRNAs (25 nM) using Lipofectamine RNAiMAX. After 48 hrs, cells were trypsinized and repeatedly transfected with siRNAs (25 nM) using Lipofectamine RNAiMAX. Cells were trypsinized after a further 48 hrs, counted, and reseeded at the specified density in 96-well plates. To measure cell viability after drug treatment, cells were trypsinized, counted, reseeded at the specified density in 96-well plates, and exposed to the indicated concentrations of drugs. Cell viability was measured using the CellTiter-Glo Luminescent Cell Viability Assay. Luminescence was measured using an Envision Multi-label plate reader (PerkinElmer).

The test system of a further assay is NOXA. The assay can be described thus: Quantitation of NOXA mRNA (quantitative RT-PCR). The following applies: ARID1A-KO cells and ARID1A-deficient cancer cells, 24 hrs. The method, then: mRNA was extracted and cDNA was synthesized using the SuperPrep (Registered Trademark) Cell Lysis & RT Kit for qPCR (TOYOBO). Aliquots of cDNA were subjected to quantitative PCR using the SuperPrep/THUNDERBIRD Probe qPCR Set (TOYOBO) and TaqMan Gene Expression Assays (Life Technologies). The following gene-specific primer/probe sets were used: NOXA (PMAIP1) (Hs00560402 ml), NRF2 (NFE2L2) (Hs00975961 g_1), GCLC (Hs00155249 ml), GSS (Hs00609286_m1), and SLC7A11 (Hs00921938_m1). PCR was performed in an ABI StepOnePlus Real-Time PCR System (Life Technologies) under the following conditions: denaturation at 95° C. for 15 s, followed by annealing and extension at 60° C. for 30 s (40 cycles). For each sample, the mRNA levels of target genes were normalized against levels of GAPDH mRNA. The target/GAPDH ratios were then normalized against those in control samples using the 2-ΔΔCt method.

For assay [3], the system named is SWI/SNF complexes (SMARCA2, SMARCA4, SMARCB1, PBRM1) deficient cancer cells. The assay can be described thus: Cell viability of SWI/SNF complex-deficient cancer cell lines. The conditions noted are these: treatment for 6 days. As to the method: as §1
The subject of assay [4] is diffuse-type gastric cancer PDCs. Put plainly: Cell viability of diffuse-type gastric cancer PDCs. The following applies: treatment for 6 days.

Consider `COCC1(CO)C(=O)C2CCN1CC2` (centres unmarked) [APR-246], for which the “apoptosis (caspase activation, Annexin V)” value in assay [1] is given as “induced apoptosis”. In addition, the “IC50 values in ARID1A-deficient versus ARID1A-proficient bile duct cancer cell lines” value in assay [2] was “markedly lower in two ARID1A-deficient cell lines than in two ARID1A-proficient cell lines”. Further, the “mRNA expression of NOXA” value with NOXA is listed as “increased”. For the same compound, in assay [3], the “IC50 values in SWI/SNF complexes deficient versus wild-type cell lines” value is listed as “markedly lower in these SWI/SNF complexes deficient cell lines than in wild-type cell lines”. Besides, the “IC50 values in ARID1A-deficient versus ARID1A-proficient PDCs” value in assay [4] is reported as “markedly lower in ARID1A-deficient PDCs than in ARID1A-proficient PDCs”.
